Measurements reported in PubChem BioAssay (NCI).
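Each compound was tested at five concentrations against cells in 96-well plates for 48 hours. TGI: total growth inhibition.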

How the values were obtained:
Assay in all cases: inhibition of tumour cell growth, NCI panel, 48 h
786-0 renal = test system: 786-0 renal
A498 renal = test system: A498 renal
A549 NSCLC = test system: A549 NSCLC
ACHN renal = test system: ACHN renal
BT-549 breast = test system: BT-549 breast
CAKI-1 renal = test system: CAKI-1 renal
CCRF-CEM leukemia = test system: CCRF-CEM leukemia
COLO 205 colon = test system: COLO 205 colon
DU-145 prostate = test system: DU-145 prostate
EKVX NSCLC = test system: EKVX NSCLC
HCC-2998 colon = test system: HCC-2998 colon
HCT-116 colon = test system: HCT-116 colon
HCT-15 colon = test system: HCT-15 colon
HL-60(TB) leukemia = test system: HL-60(TB) leukemia
HOP-62 NSCLC = test system: HOP-62 NSCLC
HOP-92 NSCLC = test system: HOP-92 NSCLC
HS 578T breast = test system: HS 578T breast
HT29 colon = test system: HT29 colon
IGROV1 ovarian = test system: IGROV1 ovarian
K-562 leukemia = test system: K-562 leukemia
KM12 colon = test system: KM12 colon
LOX IMVI melanoma = test system: LOX IMVI melanoma
M14 melanoma = test system: M14 melanoma
MALME-3M melanoma = test system: MALME-3M melanoma
MCF7 breast = test system: MCF7 breast
MDA-MB-231 breast = test system: MDA-MB-231 breast
MDA-MB-435 = test system: MDA-MB-435
MDA-N = test system: MDA-N
MOLT-4 leukemia = test system: MOLT-4 leukemia
NCI-H226 lung = test system: NCI-H226 lung
NCI-H23 lung = test system: NCI-H23 lung
NCI-H460 lung = test system: NCI-H460 lung
NCI-H522 lung = test system: NCI-H522 lung
NCI/ADR-RES ovarian = test system: NCI/ADR-RES ovarian
OVCAR-3 ovarian = test system: OVCAR-3 ovarian
OVCAR-4 ovarian = test system: OVCAR-4 ovarian
OVCAR-5 ovarian = test system: OVCAR-5 ovarian
OVCAR-8 ovarian = test system: OVCAR-8 ovarian
PC-3 prostate = test system: PC-3 prostate
RPMI-8226 leukemia = test system: RPMI-8226 leukemia
RXF 393 renal = test system: RXF 393 renal
SF-268 CNS = test system: SF-268 CNS
SF-295 CNS = test system: SF-295 CNS
SF-539 CNS = test system: SF-539 CNS
SK-MEL-2 melanoma = test system: SK-MEL-2 melanoma
SK-MEL-28 melanoma = test system: SK-MEL-28 melanoma
SK-MEL-5 melanoma = test system: SK-MEL-5 melanoma
SK-OV-3 ovarian = test system: SK-OV-3 ovarian
SN12C renal = test system: SN12C renal
SNB-19 CNS = test system: SNB-19 CNS
SNB-75 CNS = test system: SNB-75 CNS
SR leukemia = test system: SR leukemia
SW-620 colon = test system: SW-620 colon
T-47D breast = test system: T-47D breast
TK-10 renal = test system: TK-10 renal
U251 CNS = test system: U251 CNS
UACC-257 melanoma = test system: UACC-257 melanoma
UACC-62 melanoma = test system: UACC-62 melanoma
UO-31 renal = test system: UO-31 renal

## Oc1ccc2ccccc2c1/C=C/c1ccc2c(Br)cc(Br)c(O)c2n1
786-0 renal
  TGI: 19.5 µM
A498 renal
  TGI: 18.6 µM
A549 NSCLC
  TGI: 20.5 µM
ACHN renal
  TGI: 18.1 µM
BT-549 breast
  TGI: 26.8 µM
CAKI-1 renal
  TGI: 26.7 µM
CCRF-CEM leukemia
  TGI: 15.6 µM
COLO 205 colon
  TGI: 21.9 µM
DU-145 prostate
  TGI: 25.7 µM
EKVX NSCLC
  TGI: 15.3 µM
HCC-2998 colon
  TGI: 23.4 µM
HCT-116 colon
  TGI: 11.4 µM
HCT-15 colon
  TGI: 17.5 µM
HL-60(TB) leukemia
  TGI: 12.3 µM
HOP-62 NSCLC
  TGI: 34.5 µM
HOP-92 NSCLC
  TGI: 35.5 µM
HS 578T breast
  TGI: 49.4 µM
HT29 colon
  TGI: 41.4 µM
IGROV1 ovarian
  TGI: 32.5 µM
K-562 leukemia
  TGI: 22.5 µM
KM12 colon
  TGI: 30.9 µM
LOX IMVI melanoma
  TGI: 23 µM
M14 melanoma
  TGI: 26.5 µM
MALME-3M melanoma
  TGI: 32 µM
MCF7 breast
  TGI: 14.5 µM
MDA-MB-231 breast
  TGI: 23.4 µM
MDA-MB-435
  TGI: 36.2 µM
MDA-N
  TGI: 26.7 µM
MOLT-4 leukemia
  TGI: 15.4 µM
NCI-H226 lung
  TGI: 20.3 µM
NCI-H23 lung
  TGI: 24.7 µM
NCI-H460 lung
  TGI: 16.2 µM
NCI-H522 lung
  TGI: 14.3 µM
NCI/ADR-RES ovarian
  TGI: 12.9 µM
OVCAR-3 ovarian
  TGI: 10 µM
OVCAR-4 ovarian
  TGI: 33.4 µM
OVCAR-5 ovarian
  TGI: 21.7 µM
OVCAR-8 ovarian
  TGI: 20.1 µM
PC-3 prostate
  TGI: 18.9 µM
RPMI-8226 leukemia
  TGI: 41.4 µM
RXF 393 renal
  TGI: 24.7 µM
SF-268 CNS
  TGI: 21.8 µM
SF-295 CNS
  TGI: 18.5 µM
SF-539 CNS
  TGI: 13.6 µM
SK-MEL-2 melanoma
  TGI: 29.7 µM
SK-MEL-28 melanoma
  TGI: 31.8 µM
SK-MEL-5 melanoma
  TGI: 14.5 µM
SK-OV-3 ovarian
  TGI: 28.9 µM
SN12C renal
  TGI: 20.9 µM
SNB-19 CNS
  TGI: 25.1 µM
SNB-75 CNS
  TGI: 30.8 µM
SR leukemia
  TGI: > 40.4 µM
SW-620 colon
  TGI: 25.1 µM
T-47D breast
  TGI: 35.4 µM
TK-10 renal
  TGI: 23.2 µM
U251 CNS
  TGI: 21.6 µM
UACC-257 melanoma
  TGI: 22.9 µM
UACC-62 melanoma
  TGI: 24.2 µM
UO-31 renal
  TGI: 17.1 µM

## C=C(C)C(CC=C(C)C)CC12CC(CC=C(C)C)C(C)(C)C(CC=C(C)C)(C(=O)C(Cc3ccc(O)c(O)c3)=C1O)C2=O (stereo unspecified)
786-0 renal
  TGI: > 100 µM
A498 renal
  TGI: > 100 µM
A549 NSCLC
  TGI: > 100 µM
ACHN renal
  TGI: > 100 µM
BT-549 breast
  TGI: > 100 µM
CAKI-1 renal
  TGI: > 100 µM
CCRF-CEM leukemia
  TGI: > 100 µM
COLO 205 colon
  TGI: > 100 µM
DU-145 prostate
  TGI: > 100 µM
EKVX NSCLC
  TGI: > 100 µM
HCC-2998 colon
  TGI: > 100 µM
HCT-116 colon
  TGI: > 100 µM
HCT-15 colon
  TGI: > 100 µM
HL-60(TB) leukemia
  TGI: > 100 µM
HOP-62 NSCLC
  TGI: > 100 µM
HOP-92 NSCLC
  TGI: > 100 µM
HS 578T breast
  TGI: > 100 µM
HT29 colon
  TGI: > 100 µM
IGROV1 ovarian
  TGI: > 100 µM
K-562 leukemia
  TGI: > 100 µM
KM12 colon
  TGI: > 100 µM
LOX IMVI melanoma
  TGI: > 100 µM
M14 melanoma
  TGI: > 100 µM
MALME-3M melanoma
  TGI: > 100 µM
MCF7 breast
  TGI: > 100 µM
MDA-MB-231 breast
  TGI: > 100 µM
MDA-MB-435
  TGI: > 100 µM
MDA-N
  TGI: > 100 µM
MOLT-4 leukemia
  TGI: > 100 µM
NCI-H226 lung
  TGI: > 100 µM
NCI-H23 lung
  TGI: > 100 µM
NCI-H460 lung
  TGI: > 100 µM
NCI-H522 lung
  TGI: > 100 µM
NCI/ADR-RES ovarian
  TGI: > 100 µM
OVCAR-3 ovarian
  TGI: > 100 µM
OVCAR-4 ovarian
  TGI: > 100 µM
OVCAR-5 ovarian
  TGI: > 100 µM
OVCAR-8 ovarian
  TGI: > 100 µM
PC-3 prostate
  TGI: > 100 µM
RPMI-8226 leukemia
  TGI: > 100 µM
RXF 393 renal
  TGI: > 100 µM
SF-268 CNS
  TGI: > 100 µM
SF-295 CNS
  TGI: > 100 µM
SF-539 CNS
  TGI: > 100 µM
SK-MEL-28 melanoma
  TGI: > 100 µM
SK-MEL-5 melanoma
  TGI: > 100 µM
SK-OV-3 ovarian
  TGI: > 100 µM
SNB-19 CNS
  TGI: > 100 µM
SNB-75 CNS
  TGI: > 100 µM
SR leukemia
  TGI: > 100 µM
SW-620 colon
  TGI: > 100 µM
T-47D breast
  TGI: > 100 µM
TK-10 renal
  TGI: > 100 µM
U251 CNS
  TGI: > 100 µM
UACC-257 melanoma
  TGI: > 100 µM
UACC-62 melanoma
  TGI: > 100 µM
UO-31 renal
  TGI: > 100 µM
